Measured values reported in ChEMBL document CHEMBL1944604, “Aminopurine based JNK inhibitors for the prevention of ischemia reperfusion injury” (Bioorg Med Chem Lett, 2012).
Values after ≈ are worked out from the molar mass of the structure shown.

Columns and labels:
Cytochrome P450 1A2 = molecular target: T1, Cytochrome P450 1A2 (Homo sapiens, UniProt P05177); assay: Inhibition of recombinant CYP1A2 up to 30 uM; format: ADME; conditions: recombinant enzyme
T1 sequence (P05177 whole entry): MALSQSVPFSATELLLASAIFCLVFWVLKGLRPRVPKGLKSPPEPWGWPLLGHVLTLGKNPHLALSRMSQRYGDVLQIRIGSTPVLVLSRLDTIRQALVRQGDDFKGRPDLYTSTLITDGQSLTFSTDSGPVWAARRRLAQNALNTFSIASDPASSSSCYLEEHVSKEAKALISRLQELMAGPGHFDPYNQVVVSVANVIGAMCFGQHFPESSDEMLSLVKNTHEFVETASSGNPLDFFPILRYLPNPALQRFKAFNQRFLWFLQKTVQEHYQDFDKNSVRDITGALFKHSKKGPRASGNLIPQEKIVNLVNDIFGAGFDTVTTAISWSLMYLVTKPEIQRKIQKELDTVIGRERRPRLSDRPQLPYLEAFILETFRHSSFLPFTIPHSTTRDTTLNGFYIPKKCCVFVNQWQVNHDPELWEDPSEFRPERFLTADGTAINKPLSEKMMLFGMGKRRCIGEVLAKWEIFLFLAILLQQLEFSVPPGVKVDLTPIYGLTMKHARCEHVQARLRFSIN

[1] = Thermodynamic solubility of the compound at pH 5; format: physicochemical; conditions: buffer, read-out: Therm_solubility
Cytochrome P450 2C9 = Cytochrome P450 2C9 (Homo sapiens, UniProt P11712); assay: Inhibition of recombinant CYP2C9 up to 30 uM; format: ADME; conditions: recombinant enzyme
Cytochrome P450 2C9, sequence (P11712 whole entry): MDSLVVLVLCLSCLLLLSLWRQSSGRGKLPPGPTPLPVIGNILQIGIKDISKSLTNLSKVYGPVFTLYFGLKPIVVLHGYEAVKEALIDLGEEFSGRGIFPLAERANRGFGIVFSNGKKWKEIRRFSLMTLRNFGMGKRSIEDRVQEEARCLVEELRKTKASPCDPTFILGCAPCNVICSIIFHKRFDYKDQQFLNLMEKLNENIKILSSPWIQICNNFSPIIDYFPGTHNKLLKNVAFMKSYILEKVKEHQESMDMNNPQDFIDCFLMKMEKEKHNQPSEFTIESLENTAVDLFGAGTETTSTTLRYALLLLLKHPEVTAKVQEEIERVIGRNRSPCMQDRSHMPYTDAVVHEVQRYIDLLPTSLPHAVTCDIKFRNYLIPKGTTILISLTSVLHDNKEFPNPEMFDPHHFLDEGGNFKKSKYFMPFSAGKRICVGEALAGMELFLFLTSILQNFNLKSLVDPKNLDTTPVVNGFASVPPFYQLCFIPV

Hepatocyte = assay: Drug metabolism in mouse hepatocytes after 60 mins; format: ADME, cell-based; conditions: 1 h
Cytochrome P450 3A4 [2] = molecular target: T2, Cytochrome P450 3A4 (Homo sapiens, UniProt P08684); assay: Inhibition of CYP3A4 in human liver microsomes up to 30 uM; format: ADME, Microsome
T2 sequence (P08684 whole entry): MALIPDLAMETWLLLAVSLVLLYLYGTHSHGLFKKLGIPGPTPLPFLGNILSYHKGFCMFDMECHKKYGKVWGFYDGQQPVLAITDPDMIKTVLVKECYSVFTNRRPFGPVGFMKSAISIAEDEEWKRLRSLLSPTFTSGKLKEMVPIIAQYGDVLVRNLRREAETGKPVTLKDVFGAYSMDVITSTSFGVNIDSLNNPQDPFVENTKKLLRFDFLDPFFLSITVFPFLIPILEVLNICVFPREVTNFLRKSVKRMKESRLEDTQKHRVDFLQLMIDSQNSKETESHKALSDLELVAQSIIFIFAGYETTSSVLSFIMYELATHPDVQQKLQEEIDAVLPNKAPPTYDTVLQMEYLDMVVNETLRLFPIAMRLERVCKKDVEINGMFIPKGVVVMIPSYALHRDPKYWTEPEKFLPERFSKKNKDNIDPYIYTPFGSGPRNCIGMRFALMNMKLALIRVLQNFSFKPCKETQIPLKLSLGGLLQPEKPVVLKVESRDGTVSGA

CYP2D6 = CYP2D6 (Homo sapiens, UniProt P10635); assay: Drug metabolism assessed as CYP2D6-mediated compound loss after 30 mins; format: ADME; conditions: recombinant enzyme; read-out: Drug metabolism
CYP2D6, sequence (P10635 whole entry): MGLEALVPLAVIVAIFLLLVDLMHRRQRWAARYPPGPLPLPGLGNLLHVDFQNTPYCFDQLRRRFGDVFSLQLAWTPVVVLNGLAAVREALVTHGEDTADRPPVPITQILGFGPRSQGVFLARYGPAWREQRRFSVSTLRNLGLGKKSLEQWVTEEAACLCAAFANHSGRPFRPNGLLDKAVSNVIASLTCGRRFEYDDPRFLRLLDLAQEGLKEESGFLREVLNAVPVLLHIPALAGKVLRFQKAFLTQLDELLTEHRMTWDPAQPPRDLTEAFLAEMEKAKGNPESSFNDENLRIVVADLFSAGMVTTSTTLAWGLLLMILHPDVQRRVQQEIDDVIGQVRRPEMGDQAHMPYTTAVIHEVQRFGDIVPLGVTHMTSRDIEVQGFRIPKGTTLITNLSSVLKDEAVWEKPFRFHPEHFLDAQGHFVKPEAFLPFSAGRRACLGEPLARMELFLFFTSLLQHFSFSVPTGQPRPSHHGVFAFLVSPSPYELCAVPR

[3] = Clearance in dog at 1 mg/kg, iv bolus; format: ADME, organism-based, Canis lupus familiaris; parameters: dose 1 mg/kg, route intravenous; conditions: in vivo
[4] = Half life in dog at 1 mg/kg, iv bolus; format: ADME, organism-based, Canis lupus familiaris; parameters: dose 1 mg/kg, route intravenous; conditions: in vivo
Rattus norvegicus [5] = assay: Toxicity in rat non-anesthetized rat at 30 mg/kg, iv infusion administered 4 hrs for 4 consecutive days; format: organism-based; parameters: dose 30 mg/kg, route intravenous; conditions: in vivo
Salmonella typhimurium = assay: Induction of mutagenesis in Salmonella Typhimurium by Ames test; format: toxicity, organism-based; conditions: salmonella enterica subsp. enterica serovar typhimurium
[6] = Metabolic stability of the compound in rat liver microsomes assessed as compound remaining at 3 uM after 30 mins; format: ADME, Microsome; conditions: read-out: Stability
[7] = molecular target: T3, c-Jun N-terminal kinase, JNK (Homo sapiens, UniProt P45983+P53779+P45984); assay: Inhibition of JNK-mediated cJun phosphorylation in anisomysin-stimulated human Jurkat T cells pretreated for 30 mins before anisomysin stimulation measured after 10 mins by DELFIA assay; format: cell-based
[8] = Half life in rat at 10 mg/kg, iv infusion; format: ADME, organism-based; parameters: dose 10 mg/kg, route intravenous; conditions: in vivo
[9] = molecular target: Mitogen-activated protein kinase 14 (Homo sapiens, UniProt Q16539); assay: Inhibition of p38alpha using MBP and [gamma33P]ATP as substrate after 60 mins by scintillation counting
Mitogen-activated protein kinase 14, sequence (Q16539 whole entry, the tested form may be a part): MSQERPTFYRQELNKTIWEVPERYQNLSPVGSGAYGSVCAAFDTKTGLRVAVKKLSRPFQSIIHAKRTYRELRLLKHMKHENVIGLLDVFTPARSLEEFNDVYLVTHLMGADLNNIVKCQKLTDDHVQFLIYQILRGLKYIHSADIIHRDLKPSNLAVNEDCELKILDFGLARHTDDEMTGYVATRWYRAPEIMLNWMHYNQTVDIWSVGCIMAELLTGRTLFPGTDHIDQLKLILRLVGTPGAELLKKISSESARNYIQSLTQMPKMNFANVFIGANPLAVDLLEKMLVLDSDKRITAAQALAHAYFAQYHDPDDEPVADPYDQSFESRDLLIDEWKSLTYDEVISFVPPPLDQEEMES

Rattus norvegicus [10] = assay: Antiischemic activity in Lewis rat ischemia reperfusion model assessed as increase in survival rate at 10 mg/kg, iv bolus administered 15 mins before ischemia challenge relative to control; format: functional
[11] = AUC in rat at 10 mg/kg, iv infusion; format: ADME, organism-based; parameters: dose 10 mg/kg, route intravenous; conditions: plasma
Rattus norvegicus [12] = assay: Antiischemic activity in Lewis rat ischemia reperfusion model assessed as increase in survival rate at 3 mg/kg, iv bolus administered 15 mins before ischemia challenge relative to control; format: functional
[13] = Half life in cynomolgus monkey at 1 mg/kg, iv bolus; format: ADME, organism-based, Macaca fascicularis; parameters: dose 1 mg/kg, route intravenous; conditions: in vivo
[14] = Volume of distribution at steady state in cynomolgus monkey at 1 mg/kg, iv bolus; format: ADME, organism-based, Macaca fascicularis; parameters: dose 1 mg/kg, route intravenous; conditions: in vivo, read-out: Vdss
Rattus norvegicus [15] = assay: Toxicity in rat non-anesthetized rat at 10 mg/kg, iv infusion administered 4 hrs for 4 consecutive days; format: organism-based; parameters: dose 10 mg/kg, route intravenous; conditions: in vivo
Rattus norvegicus [16] = assay: Antiinflammatory activity in po dosed CD rat whole blood assessed as inhibition of LPS-induced TNFalpha production administered 1 hr before LPS challenge measured by […]; format: functional, organism-based
[17] = Half life in rat at 2 to 10 mg/kg, iv bolus; format: ADME, organism-based; parameters: dose 2-10 mg/kg, route intravenous; conditions: in vivo
CYP2B6 = molecular target: T4, CYP2B6 (Homo sapiens, UniProt P20813); assay: Drug metabolism assessed as CYP2B6-mediated compound loss after 30 mins; format: ADME; conditions: recombinant enzyme; read-out: Drug metabolism
T4 sequence (P20813 whole entry): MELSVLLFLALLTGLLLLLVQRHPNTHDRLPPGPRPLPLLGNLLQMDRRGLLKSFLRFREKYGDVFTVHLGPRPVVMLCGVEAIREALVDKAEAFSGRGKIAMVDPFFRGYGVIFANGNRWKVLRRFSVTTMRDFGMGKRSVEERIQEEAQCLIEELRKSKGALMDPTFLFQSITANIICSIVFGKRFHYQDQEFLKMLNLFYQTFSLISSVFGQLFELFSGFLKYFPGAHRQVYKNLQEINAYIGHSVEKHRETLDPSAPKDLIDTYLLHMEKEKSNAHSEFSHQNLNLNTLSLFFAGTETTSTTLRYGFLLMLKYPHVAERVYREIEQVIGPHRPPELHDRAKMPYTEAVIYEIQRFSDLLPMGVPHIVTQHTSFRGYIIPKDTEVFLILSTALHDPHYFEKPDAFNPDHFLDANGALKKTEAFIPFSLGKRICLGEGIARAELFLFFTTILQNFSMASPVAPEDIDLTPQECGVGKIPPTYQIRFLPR

[18] = Metabolic stability of the compound in human liver microsomes assessed as compound remaining at 3 uM after 30 mins; format: ADME, Microsome; conditions: read-out: Stability
hERG (KCNH2) = hERG (KCNH2) (Homo sapiens, UniProt Q12809); assay: Inhibition of human ERG at 10 uM
hERG (KCNH2), sequence (Q12809 whole entry): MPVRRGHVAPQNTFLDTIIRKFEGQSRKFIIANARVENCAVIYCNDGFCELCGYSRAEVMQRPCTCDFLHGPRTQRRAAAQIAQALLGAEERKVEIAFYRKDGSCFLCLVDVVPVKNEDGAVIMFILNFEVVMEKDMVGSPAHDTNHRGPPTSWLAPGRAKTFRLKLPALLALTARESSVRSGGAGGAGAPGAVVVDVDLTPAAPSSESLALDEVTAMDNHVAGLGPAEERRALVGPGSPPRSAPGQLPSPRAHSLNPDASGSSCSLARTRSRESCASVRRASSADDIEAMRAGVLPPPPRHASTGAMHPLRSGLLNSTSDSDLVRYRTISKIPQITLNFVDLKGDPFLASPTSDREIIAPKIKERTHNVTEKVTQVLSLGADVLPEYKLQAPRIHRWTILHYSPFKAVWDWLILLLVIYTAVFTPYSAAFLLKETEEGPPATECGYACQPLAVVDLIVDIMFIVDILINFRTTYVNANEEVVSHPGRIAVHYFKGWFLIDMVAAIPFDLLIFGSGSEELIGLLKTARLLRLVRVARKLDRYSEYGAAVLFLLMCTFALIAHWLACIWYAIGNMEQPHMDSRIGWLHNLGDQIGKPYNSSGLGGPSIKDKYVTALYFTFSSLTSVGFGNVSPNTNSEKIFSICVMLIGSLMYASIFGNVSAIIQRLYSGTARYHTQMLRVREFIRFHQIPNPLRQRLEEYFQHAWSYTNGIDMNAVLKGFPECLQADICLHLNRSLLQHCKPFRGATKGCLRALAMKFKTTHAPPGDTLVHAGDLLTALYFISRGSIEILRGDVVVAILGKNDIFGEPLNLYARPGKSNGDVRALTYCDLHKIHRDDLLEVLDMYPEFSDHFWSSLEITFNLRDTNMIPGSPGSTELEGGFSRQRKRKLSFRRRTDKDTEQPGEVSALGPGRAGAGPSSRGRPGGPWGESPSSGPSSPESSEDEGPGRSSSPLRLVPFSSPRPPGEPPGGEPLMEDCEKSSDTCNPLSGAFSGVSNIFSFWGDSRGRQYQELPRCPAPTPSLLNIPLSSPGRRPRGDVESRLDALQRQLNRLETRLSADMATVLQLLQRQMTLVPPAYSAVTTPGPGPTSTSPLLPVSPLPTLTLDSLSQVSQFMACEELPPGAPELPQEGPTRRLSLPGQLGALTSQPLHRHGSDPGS

[19] = AUC in dog at 1 mg/kg, iv bolus; format: ADME, organism-based, Canis lupus familiaris; parameters: dose 1 mg/kg, route intravenous; conditions: plasma
[20] = Volume of distribution at steady state in dog at 1 mg/kg, iv bolus; format: ADME, organism-based, Canis lupus familiaris; parameters: dose 1 mg/kg, route intravenous; conditions: in vivo, read-out: Vdss
Cytochrome P450 2D6 = Cytochrome P450 2D6 (Homo sapiens, UniProt P10635); assay: Inhibition of recombinant CYP2D6 up to 30 uM; format: ADME; conditions: recombinant enzyme
Cytochrome P450 2D6, sequence (P10635 whole entry): as the sequence (P10635 whole entry) above

CYP3A4 = CYP3A4 (Homo sapiens, UniProt P08684); assay: Drug metabolism assessed as CYP3A4-mediated compound loss after 30 mins; format: ADME; conditions: recombinant enzyme; read-out: Drug metabolism
CYP3A4, sequence (P08684 whole entry): as the sequence (P08684 whole entry) above

Cytochrome P450 3A4 [21] = molecular target: T2, Cytochrome P450 3A4; assay: Inhibition of recombinant CYP3A4 up to 30 uM; format: ADME; conditions: recombinant enzyme
[22] = molecular target: T3, c-Jun N-terminal kinase, JNK; assay: Inhibition of JNK-mediated cJun phosphorylation in human Jurkat T cells by Western blotting; format: cell-based
[23] = Metabolic stability of the compound in monkey liver microsomes assessed as compound remaining at 3 uM after 30 mins; format: ADME, Macaca mulatta, Microsome; conditions: rhesus monkey, read-out: Stability
[24] = molecular target: Mitogen-activated protein kinase 8 (Homo sapiens, UniProt P45983); assay: Inhibition of full length Hexa-His-tagged JNK1 using GST-tagged cJun and [gamma33P]ATP as substrate after 60 mins by scintillation counting
Mitogen-activated protein kinase 8, sequence (P45983 whole entry): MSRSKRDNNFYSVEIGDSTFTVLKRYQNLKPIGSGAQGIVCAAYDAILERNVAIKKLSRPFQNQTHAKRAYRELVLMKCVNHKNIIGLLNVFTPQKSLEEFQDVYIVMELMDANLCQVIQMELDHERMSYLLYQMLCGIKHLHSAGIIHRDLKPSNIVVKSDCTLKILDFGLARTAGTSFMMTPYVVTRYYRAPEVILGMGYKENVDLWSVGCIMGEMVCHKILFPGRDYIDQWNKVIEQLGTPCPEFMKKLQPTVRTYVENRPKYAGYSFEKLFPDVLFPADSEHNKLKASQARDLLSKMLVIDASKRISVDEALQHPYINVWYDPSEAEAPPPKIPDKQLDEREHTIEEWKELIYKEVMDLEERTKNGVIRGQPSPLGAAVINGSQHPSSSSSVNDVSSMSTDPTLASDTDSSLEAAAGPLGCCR

[25] = Clearance in cynomolgus monkey at 1 mg/kg, iv bolus; format: ADME, organism-based, Macaca fascicularis; parameters: dose 1 mg/kg, route intravenous; conditions: in vivo

Compound: N[C@H]1CC[C@H](Nc2ncc3nc(Nc4ccc(F)cc4F)n(C4CCCC4)c3n2)CC1
- inhibition (INH) (Cytochrome P450 1A2): Not Active
- solubility thermodynamic [1]: 792 µg/mL (≈ 1850 µM)
- inhibition (INH) (Cytochrome P450 2C9): Not Active
- Drug metabolism (Hepatocyte): Not Active
- inhibition (INH) (Cytochrome P450 3A4 [2]): Not Active
- metabolised at 0.5 h (CYP2D6): 1.4%
- clearance [3]: 28 mL/min/kg
- half-life [4]: 17 h
- Activity (Rattus norvegicus [5]): Non-toxic
- Activity (Salmonella typhimurium): Non-toxic
- remaining at 0.5 h, 3 µM [6]: 92%
- IC50 [7]: 350 nM
- half-life [8]: 10 h
- IC50 [9]: 220 nM
- survival at 10 mg/kg (Rattus norvegicus [10]): 80%
- AUC [11]: 3.8 µM·h
- survival at 3 mg/kg (Rattus norvegicus [12]): 60%
- half-life [13]: 37 h
- Vd [14]: 11 L/kg
- Activity (Rattus norvegicus [15]): Non-toxic
- IC50 (Rattus norvegicus [16]): 1500 nM
- half-life [17]: 17 h
- metabolised at 0.5 h (CYP2B6): 14%
- remaining at 0.5 h, 3 µM [18]: 100%
- inhibition at 10 µM (hERG (KCNH2)): 59%
- AUC [19]: 1.2 µM·h
- Vd [20]: 30 L/kg
- inhibition (INH) (Cytochrome P450 2D6): Not Active
- metabolised at 0.5 h (CYP3A4): 10%
- inhibition (INH) (Cytochrome P450 3A4 [21]): Not Active
- IC50 [22]: 400 nM
- remaining at 0.5 h, 3 µM [23]: 100%
- IC50 [24]: 270 nM
- clearance [25]: 5 mL/min/kg
